From paper PMC6317893 (Journal of pharmaceutical sciences, 2018)
Where two headings read alike, the source gives them in different places.

Legend:
mouse Pgp (Abcb1a, MDR3) [1] = biological target: T1, mouse Pgp (Abcb1a, MDR3) (Mus musculus, UniProt P21447); assay: biochemical
mouse Pgp (Abcb1a, MDR3) [2] = biological target: T1, mouse Pgp (Abcb1a, MDR3)
mouse Pgp (Abcb1a, MDR3) [3] = biological target: T1, mouse Pgp (Abcb1a, MDR3); remark: listed apart in the source
Pgp [4] = conditions: Caco-2 cells, cited from earlier work
Pgp [5] = conditions: cited from earlier work
Pgp [6] = conditions: humans ref 32; cited from earlier work
Pgp [7] = conditions: rats ref 32; cited from earlier work
mouse Pgp (Abcb1a, MDR3) [8] = biological target: T1, mouse Pgp (Abcb1a, MDR3); remark: listed apart in the source
mouse Pgp (Abcb1a, MDR3) [9] = biological target: T1, mouse Pgp (Abcb1a, MDR3); assay: in vitro; conditions: pH 7.4
mouse Pgp (Abcb1a, MDR3) [10] = biological target: T1, mouse Pgp (Abcb1a, MDR3); assay: biochemical; remark: listed apart in the source
mouse Pgp (Abcb1a, MDR3) [11] = biological target: T1, mouse Pgp (Abcb1a, MDR3); conditions: for KSV of acrylamide quenching of Pgp (slope of Stern-Volmer plot): 1 μM Pgp
human and mouse Pgp = conditions: study of CNS drugs ref 96; cited from earlier work

T1 sequence (P21447 whole entry): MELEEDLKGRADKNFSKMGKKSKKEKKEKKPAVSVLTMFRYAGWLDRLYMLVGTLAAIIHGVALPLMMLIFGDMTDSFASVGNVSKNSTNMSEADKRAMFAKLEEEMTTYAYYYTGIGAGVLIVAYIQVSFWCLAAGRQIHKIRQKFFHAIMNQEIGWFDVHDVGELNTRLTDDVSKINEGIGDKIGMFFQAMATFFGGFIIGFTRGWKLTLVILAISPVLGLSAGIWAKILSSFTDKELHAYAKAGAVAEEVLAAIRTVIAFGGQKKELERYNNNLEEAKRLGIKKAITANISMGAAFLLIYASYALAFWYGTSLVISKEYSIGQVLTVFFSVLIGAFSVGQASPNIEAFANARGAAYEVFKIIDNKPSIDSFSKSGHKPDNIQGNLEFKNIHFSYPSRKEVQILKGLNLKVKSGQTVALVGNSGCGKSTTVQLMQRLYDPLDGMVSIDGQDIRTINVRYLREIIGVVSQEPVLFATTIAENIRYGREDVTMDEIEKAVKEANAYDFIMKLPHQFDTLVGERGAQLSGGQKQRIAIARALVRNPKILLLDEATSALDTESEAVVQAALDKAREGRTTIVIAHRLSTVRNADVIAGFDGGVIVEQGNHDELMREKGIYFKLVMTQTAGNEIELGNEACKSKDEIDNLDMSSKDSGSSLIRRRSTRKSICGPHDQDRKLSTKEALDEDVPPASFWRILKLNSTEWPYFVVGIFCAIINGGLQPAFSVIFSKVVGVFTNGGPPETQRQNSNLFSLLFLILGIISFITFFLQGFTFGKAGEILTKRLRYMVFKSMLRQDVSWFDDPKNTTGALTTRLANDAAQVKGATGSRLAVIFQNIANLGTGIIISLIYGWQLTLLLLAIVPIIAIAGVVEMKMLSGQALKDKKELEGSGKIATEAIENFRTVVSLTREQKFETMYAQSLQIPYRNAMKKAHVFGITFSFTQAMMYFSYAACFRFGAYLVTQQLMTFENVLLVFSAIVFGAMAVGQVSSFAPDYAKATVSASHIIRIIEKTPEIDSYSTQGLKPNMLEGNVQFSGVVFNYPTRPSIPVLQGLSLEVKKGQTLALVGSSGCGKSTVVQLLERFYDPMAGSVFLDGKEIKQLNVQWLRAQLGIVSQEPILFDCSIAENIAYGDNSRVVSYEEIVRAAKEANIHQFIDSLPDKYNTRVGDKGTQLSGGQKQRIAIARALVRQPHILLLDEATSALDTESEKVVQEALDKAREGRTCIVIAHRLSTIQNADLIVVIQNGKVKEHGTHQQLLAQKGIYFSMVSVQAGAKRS

C[C@H]1O[C@@H](O[C@H]2[C@@H](O)C[C@H](O[C@H]3[C@@H](O)C[C@H](O[C@H]4CC[C@@]5(C)[C@H](CC[C@@H]6[C@@H]5C[C@@H](O)[C@]5(C)[C@@H](C7=CC(=O)OC7)CC[C@]65O)C4)O[C@@H]3C)O[C@@H]2C)C[C@H](O)[C@@H]1O [digoxin]
Kd (mouse Pgp (Abcb1a, MDR3) [1]): 32 ± 13.4 µM
KSV,L (Stern-Volmer constant, low concentration phase) (mouse Pgp (Abcb1a, MDR3) [2]; in the presence of 500 μM loperamide, biphasic, fit to Eq. 5, dynamic quenching): 4.59 ± 2.10 µM⁻¹
KSV,H (Stern-Volmer constant, high concentration phase) (mouse Pgp (Abcb1a, MDR3) [2]; in the presence of 500 μM loperamide, biphasic, fit to Eq. 5, static quenching): 0.0241 ± 0.0108 µM⁻¹

CN(C)C(=O)C(CCN1CCC(O)(c2ccc(Cl)cc2)CC1)(c1ccccc1)c1ccccc1 [loperamide]
Shape of drug-induced ATPase activation kinetics (mouse Pgp (Abcb1a, MDR3) [3]): biphasic
ATPase activity, apparent maximum (mouse Pgp (Abcb1a, MDR3) [3]; at 7.8 μM drug): around 800 nmol min^−1 mg^−1
ATPase activity at saturating drug (mouse Pgp (Abcb1a, MDR3) [3]; at saturating (500 μM) drug): ~ 400 nmol min^−1 mg^−1
Transport at 100 μM (Pgp [4]; 100 μM ref 89): inhibited
Concentration at which transport was highest (Pgp [4]; in vitro ref 89): 5 µM
Level in brain, Pgp-knockout mice versus wild-type (Pgp [5]): > 10 fold
Levels of loperamide in the presence of cyclosporine A (CsA) (Pgp [6]): elevated levels
Levels of loperamide in the presence of cyclosporine A (CsA) (Pgp [7]): elevated levels
Average STDD amplification factor (mouse Pgp (Abcb1a, MDR3) [8]; 1 mM drug, 1 μM Pgp in liposomes): ~ 30
STDD amplification factor of aromatic protons (mouse Pgp (Abcb1a, MDR3) [8]; aromatic protons labeled 9–13, 1 mM drug, 1 μM Pgp): ~ 30
Quenching of intrinsic Pgp fluorescence by the drug (mouse Pgp (Abcb1a, MDR3) [2]; data not shown): did not quench
Km (mouse Pgp (Abcb1a, MDR3) [9]): 1.6 ± 0.4 µM
Ki (mouse Pgp (Abcb1a, MDR3) [10]): 108 ± 27 µM
Increase of acrylamide-quenching KSV (mouse Pgp (Abcb1a, MDR3) [11]; 500 μM versus 7.8 μM drug): about 1.4 M^−1
KSV of acrylamide quenching of Pgp (slope of Stern-Volmer plot) (mouse Pgp (Abcb1a, MDR3) [11]; in the presence of 7.8 μM drug): 0.851 ± 0.002 M⁻¹
KSV of acrylamide quenching of Pgp (slope of Stern-Volmer plot) (mouse Pgp (Abcb1a, MDR3) [11]; in the presence of saturating 500 μM drug): 2.25 ± 0.17 M⁻¹
Difference of efflux ratios between human and mouse Pgp (human and mouse Pgp): less than 2 fold

CCC(=O)C(CC(C)N(C)C)(c1ccccc1)c1ccccc1 (stereo not shown) [methadone]
ATPase activity at saturating drug (mouse Pgp (Abcb1a, MDR3) [3]): around 800 nmol min^−1 mg^−1
Kd (mouse Pgp (Abcb1a, MDR3) [1]): 72.7 ± 11.7 µM
Average STDD amplification factor (mouse Pgp (Abcb1a, MDR3) [8]): ~ 10
Increase of KD at low loperamide concentration (mouse Pgp (Abcb1a, MDR3) [2]): ~ 5 fold
KSV (Stern-Volmer constant) of drug-induced Pgp fluorescence quenching (mouse Pgp (Abcb1a, MDR3) [2]): 0.0137 ± 0.0022 µM⁻¹
